In one series the target is Flag-Tat and GFP (Human immunodeficiency virus type 1 (HXB3 ISOLATE), UniProt P69698). The experiment in a line: J-Lat A2 cells stimulated with TNF-α, western blot of Flag-Tat and GFP. Type of series: cell-based, HIV. The settings on record: TNF-α 20 ng/mL, 17 hours. On the procedure: FIG. 5. […] Triptolide: 1 nM, TT-44856 and TT-44863: 40 μM, TT-44881: 60 μM. […] C. Impact of the lead hits on J-Lat A2 cells upon 17 hours stimulation with TNF-α (20 ng/mL). EPL: 10 μM, Triptolide (TRP): 1 nM, TT-44856 and TT-44863: 40 μM, TT-44881: 60 μM. […] Triptolide: 1 nM, TT-44856 and TT-44863: 40 μM, TT-44881: 60 μM.
Sequence of Flag-Tat and GFP (P69698 whole entry): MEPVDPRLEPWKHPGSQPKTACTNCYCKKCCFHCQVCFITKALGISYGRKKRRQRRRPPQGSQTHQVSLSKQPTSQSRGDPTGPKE
Next, the effect of the three leads on the alteration of Tat steady state levels was assessed. Tat expression from an integrated provirus, or from HIV acute infection is generally too low to be detected by western blot. Furthermore, antibodies against Tat are known for their lack of avidity. Tat degradation was thus assessed upon transfection. Flag-Tat or Flag-GFP were individually transfected into HEK293T and 24 hrs later, TT-44856, TT-44863 or TT-44881 were added to the culture, followed by Western blot 24 hrs later (dubbed “degradation assay”) (FIG. 5A). […] Finally, the leads' impact on recombinant Tat protein in HEK293T cells was assessed (FIG. 5D). HEK293T cells were incubated with recombinant Tat for 4 hrs to allow Tat internalization, followed by several thorough washes to remove unincorporated Tat. Cells were then incubated with all three leads (or Triptolide) for an additional 2 hrs. Cells were lysed and analyzed by western blot with an anti-Tat serum.
A general note: Immunoblotting shows a protein as a band on a membrane.

For series [1], the system named is OM10.1 cells. Description: SAHA mediated reactivation from latency in OM10.1 cells. Type of series: cell-based, HIV. The following applies: day 12 and day 32, vs DMSO+ARVs.
For series [2], the system named is TAR-SIIB promoter (Flag-Tat-Rev fusion protein). Description: Flag-Tat-Rev fusion protein transactivation of TAR-SIIB promoter. Type of series: cell-based, HIV-1. The following applies: SIIB reporter HEK293T. The method, then: FIG. 4. […] Shown is n=1. […] Shown is n=1. ARVs: antiretrovirals: 100 nM Efavirenz, 200 nM Lamivudine and 200 nM Raltegravir. C. […] SIIB: a reporter HEK293T stable cell line where the essential apical region of TAR was replaced by the 29-nucleotide stem-loop IIB (SIIB) subdomain of the HIV-1 RRE. A Tat-Rev fusion protein activates transcription of luciferase when Rev binds SIIB, bringing Tat and P-TEFb to RNAPII at the HIV promoter. Shown is mean±SEM of n=4.

In another series the test system is ACH2 cells. Description: SAHA mediated reactivation from latency in ACH2 cells. Type of series: cell-based, HIV. The following applies: text: day 12 and 32, FIG. 4B legend: day 12, vs DMSO+ARVs.
The next series relates to OM10.1 and ACH-2 cells. The experiment in a line: Toxicity / cell viability in latent cell models. The following applies: OM10.1 and ACH2; 96-day period with ARVs. On the procedure: (§1) Next, the activity of these leads against HIV infection was evaluated using the reporter cell line HeLa-CD4-LTR-LacZ, which stably expresses the β-galactosidase (β-Gal) gene under the control of the HIV 5′ LTR. The HIV NL4.3 strain was used for these studies and β-Gal activity was measured 72 hrs post infection (FIG. 3A). Cytotoxicity assays using Cell-Titer-Glo were performed in parallel to assess cell viability (FIG. 3A). […] Their anti-HIV activity was further assessed in acute replication of Jurkat T cells with the NL4.3 strain (FIG. 3A). […] These OM10.1 cells contain a single integrated wild-type provirus, while ACH-2 cells contain a single integrated provirus with a TAR mutation C37T, defective Tat-TAR feedback loop (FIG. 3B).

Series [3] deals with OM10.1 cells. Description: Cell-associated HIV Gag mRNA expression / HIV transcription in latently infected OM10.1 cells. Type of series: cell-based. The settings on record: 96-day period with ARVs, n=1. The method, then:
as §1

A further series deals with ACH-2 cells. Description: Cell-associated HIV Gag mRNA expression / HIV transcription in latently infected ACH-2 cells. Type of series: cell-based. The following applies: ACH2; 96-day period with ARVs; n=1. On the procedure: as §1
The target of series [4] is Tat protein (ubiquitin chains) (Human immunodeficiency virus type 1 (HXB3 ISOLATE), UniProt P69698). The experiment in a line: Ubiquitin linkage assay: HA-Ubiquitin lysine mutants and Flag-Tat in HEK293T, western blot. Type of series: cell-based, HIV. The following applies: HA-Ubiquitin mutants, TT-44881 60 μM, 24 hours. An excerpt: FIG. 10. TT-44881's anti-HIV activity engages heterogenous lysine linked Ubiquitin chains (K48 and K33 chains). A. Example of covalent binding of the Ubiquitin chains to the lysine residues of the Tat protein. B. Schematic of the different Ubiquitin chains that can be linked to the Tat protein to induce its degradation or stabilization. C. […] HEK293T cells overexpressing HA-Ubiquitin proteins (which have each lysine singly mutated to arginine or only one lysine present) and Flag-Tat protein were treated with TT-44881. Western blot assays were performed 24 hours later. TT-44881: 60 μM. Shown is representative of n=3.
Sequence of Tat protein (ubiquitin chains) (P69698 whole entry): as above
Which Ubiquitin linkage engaged in the TT-44881 degradation activity was also investigated. HEK293T cells were transfected with Tat protein and HA-Ubiquitin which has each lysine singly mutated to arginine or only one lysine present.

Each structure is given as a SMILES string. “Also recorded” adds a separate entry of the source.

On to `CC(C(=O)NCCCn1ccnc1)(c1ccccc1)c1ccccc1` [TT-44856], for which, at Flag-Tat and GFP, the “Flag-Tat and GFP levels in J-Lat A2 cells” value (“Flag-Tat and GFP levels” below) is on record as “strongly reduced”.
Take `COCCOc1ccc(C(F)(F)F)cc1NC(=O)Cn1cc(C(F)(F)F)cc(Cl)c1=O` [TT-44863]: the “SAHA mediated reactivation from latency” value with OM10.1 cells [1] and with ACH2 cells was “potently blocked SAHA mediated reactivation from latency” throughout. On Flag-Tat and GFP, the “Flag-Tat and GFP levels” value is “strongly reduced”. Besides, the “Flag-Tat-Rev transactivation of TAR-SIIB” value in series [2] is on record as “inhibit Tat-Rev fusion protein transactivation”. For the same molecule, the cell viability result with OM10.1 and ACH-2 cells is reported as “without affecting cell viability”. The “HIV transcription (in words)” value with OM10.1 cells [3] and in the series with ACH-2 cells was “inhibit HIV transcription” throughout.
With `O=C(CCCCN1CCCC1=O)c1nn(-c2ccccc2)c2c1CCC2` [TT-44881], the “SAHA mediated reactivation from latency” value with OM10.1 cells [1] and in the series on ACH2 cells was “potently blocked SAHA mediated reactivation from latency” in each case. The “Flag-Tat and GFP levels” value on Flag-Tat and GFP is on record as “strongly reduced”. For the same molecule, the “Flag-Tat-Rev transactivation of TAR-SIIB” value in series [2] is reported as “inhibit Tat-Rev fusion protein transactivation”. For the same molecule, in series [4], the “ubiquitin chain linkages engaged in Tat degradation” value is “K48-linked ubiquitin chains are involved in TT-44881 activity, K33 linked ubiquitin chains also seemed to be engaged; also recorded: blocks TT-44881 induced Tat degradation”. Further, the cell viability entry in the series with OM10.1 and ACH-2 cells is on record as “without affecting cell viability”. Besides, the “HIV transcription (in words)” value in the series on OM10.1 cells [3] and in the series with ACH-2 cells was “inhibit HIV transcription” each time.

The values are drawn from patent US20260355184A1, “SMALL MOLECULE DEGRADERS OF HIV-1 TAT PROTEIN” (priority 2022, published 2026).
